Experimental data reported in patent publication US6903089B1, “Lactam-substituted pyrazolopyridine derivatives” (Bayer Aktiengesellschaft, priority 2000, dated 2005).

Tested on: rabbit aorta rings
Assay: Vasorelaxant effect in vitro (phenylephrine-contracted rabbit aorta rings)
Settings: Oryctolagus cuniculus, contraction generated by phenylephrine, concentration reducing height of control contraction by 50%
Procedure: Rabbits are stunned by a blow to the back of the neck and are exsanguinated. The aorta is removed, freed of adherent tissue, divided into rings 1.5 mm wide and put singly under tension in 5 ml organ baths containing carbogen-gassed Krebs-Henseleit solution at 37° C. with the following composition (mM): NaCl: 119; KCl: 4.8; CaCl2×2H2O: 1; MgSO4×7 H2O: 1.4; KH2PO4: 1.2; NaHCO3: 25; glucose: 10. The force of contraction is detected with Statham UC2 cells, amplified and digitized via A/D converters (DAS-1802 HC, Keithley Instruments Munich) and recorded in parallel on chart recorders. A contraction is generated by adding phenylephrine to the bath cumulatively in increasing concentration. After several control cycles, the substance to be investigated is investigated in each further run in increing dosage in each case, and the height of the contraction is compared with the height of the contraction reached in the last preceding run. The concentration necessary to reduce the height of the control value by 50% (IC50) is calculated from this. The standard application volume is 5 μl, and the DMSO content in the bath solution corresponds to 0.1%.

| IC50 | SMILES |
| --- | --- |
| 700 nM | CC1(C)CN(c2cnc(-c3nn(Cc4ccccc4F)c4ncccc34)nc2N)C(=O)C1(C)C [Example 9] |
| 1230 nM | Nc1nc(-c2nn(Cc3ccccc3F)c3ncccc23)ncc1N1CCSC1=O [Example 16] |
| 1100 nM | Nc1nc(-c2nn(Cc3ccccc3F)c3ncccc23)ncc1N1CCCC1=O [Example 2] |
| 1200 nM | Nc1nc(-c2nn(Cc3ccccc3F)c3ncccc23)ncc1N1CCOC1=O [Example 15] |
| 690 nM | CC1C(=O)N(c2cnc(-c3nn(Cc4ccccc4F)c4ncccc34)nc2N)C(=O)C1(C)C (centres unmarked) [Example 13] |
| 420 nM | CC1(C)OC(=O)N(c2cnc(-c3nn(Cc4ccccc4F)c4ncccc34)nc2N)C1=O [Example 14, 3-{4-Amino-2-[1-(2-fluorobenzyl)-1H-pyrazolo[3,4-b]pyridin-3-yl]-5-pyrimidinyl}-5,5-dimethyl-1,3-oxazolidine-2,4-dione] |

Further lines, the molecule ahead of its results:

| SMILES | IC50 |
| --- | --- |
| CC12CC1C(=O)N(c1cnc(-c3nn(Cc4ccccc4F)c4ncccc34)nc1N)C2=O (centres unmarked) [Example 19] | 410 nM |
| CC(=O)Nc1nc(-c2nn(Cc3ccccc3F)c3ncccc23)ncc1N1CCOC1=O [Example 21, N-[2-[1-(2-Fluorebenzyl)-1H-pyrazolo[34-b]pyridin-3-yl]-5-(2-oxo-1,3-oxazolidin-3-yl)-4-pyrimidinyl]acetamide] | 250 nM |
| Nc1nc(-c2nn(Cc3ccccc3F)c3ncccc23)ncc1N1C(=O)c2ccccc2C1=O [Example 22, 2-{4-Amino-2-[1-(2-fluorobenzyl)-1H-pyrazolo[3,4-b]pyridin-3-yl]-5-pyrimidinyl}-1H-isoindole-1,3(2H)-dione] | 600 nM |
| Nc1nc(-c2nn(Cc3ccccc3F)c3ncccc23)ncc1N1CCCCCC1=O [Example 5] | 1050 nM |
| Nc1nc(-c2nn(Cc3ccccc3F)c3ncccc23)ncc1N1CCCCC1=O [Example 3] | 1990 nM |
